Assay results published in ChEMBL document CHEMBL1201862, “PubChem BioAssay data set” (2004).
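Method: 48-hour compound exposure of cells in 96-well plates, five concentrations, linear interpolation of endpoints. GI50: concentration for 50% inhibition of growth.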 Activity calls are given as the source filed them. Rule as the data show it: active = GI50 up to about 1.1 µM and inactive = higher. Residues, ends and D or L forms follow the SMILES beside them. *: point of attachment. Boc = CC(C)(C)OC(=O)*

Key:
Assay in all cases: DTP human tumour cell line panel, 48 h
[1] = system: UACC-257
[2] = system: SW-620
[3] = system: NCI-H226
[4] = system: MDA-MB-231
[5] = system: CCRF-CEM
[6] = system: LOX IMVI
[7] = system: PC-3
[8] = system: SNB-19
[9] = system: NCI-H23
[10] = system: T47D
[11] = system: NCI-H460
[12] = system: U-251
[13] = system: MDA-N
[14] = system: NCI/ADR-RES
[15] = system: Malme-3M

SMILES	GI50 [1]	GI50 [2]	GI50 [3]	GI50 [4]	GI50 [5]	GI50 [6]	GI50 [7]	GI50 [8]	GI50 [9]	GI50 [10]	GI50 [11]	GI50 [12]	GI50 [13]	GI50 [14]	GI50 [15]
Cc1ncc2c(n1)CCC1=C2OS(=O)(=O)CC1N(C)C (configuration not stated)	> 100 µM (inactive)	> 100 µM (inactive)	> 100 µM (inactive)	> 100 µM (inactive)	80.5 µM (inactive)	> 100 µM (inactive)	> 100 µM (inactive)	> 100 µM (inactive)	> 100 µM (inactive)	63.1 µM (inactive)	> 100 µM (inactive)	> 100 µM (inactive)	> 100 µM (inactive)	–	–
N/C(=N\c1c([N+](=O)[O-])cnc2ccccc12)N1CCOCC1	> 10 µM (inactive)	> 100 µM (inactive)	> 100 µM (inactive)	> 100 µM (inactive)	> 100 µM (inactive)	> 100 µM (inactive)	> 100 µM (inactive)	> 100 µM (inactive)	> 100 µM (inactive)	> 100 µM (inactive)	> 100 µM (inactive)	> 100 µM (inactive)	> 100 µM (inactive)	95.9 µM (inactive)	–
CC(=O)c1cc2sc3ccccc3c2[nH]1	–	> 100 µM (inactive)	–	> 100 µM (inactive)	–	–	> 100 µM (inactive)	> 100 µM (inactive)	> 100 µM (inactive)	> 100 µM (inactive)	> 100 µM (inactive)	> 100 µM (inactive)	> 100 µM (inactive)	> 100 µM (inactive)	> 100 µM (inactive)
Fc1cccc(C2ON=C(c3ccccc3)N2C23CC4CC(CC(C4)C2)C3)c1 (configuration not stated)	> 10 µM (inactive)	> 10 µM (inactive)	> 10 µM (inactive)	> 10 µM (inactive)	–	> 10 µM (inactive)	> 10 µM (inactive)	> 10 µM (inactive)	> 10 µM (inactive)	> 10 µM (inactive)	> 10 µM (inactive)	> 10 µM (inactive)	> 10 µM (inactive)	> 10 µM (inactive)	> 10 µM (inactive)
COc1ccc(C(=O)/C=C/S/C(=N/C#N)SC)cc1	20.4 µM (inactive)	16.8 µM (inactive)	16.5 µM (inactive)	13.7 µM (inactive)	–	–	33.8 µM (inactive)	19.5 µM (inactive)	16.9 µM (inactive)	20.7 µM (inactive)	> 100 µM (inactive)	16.9 µM (inactive)	–	21.3 µM (inactive)	24.5 µM (inactive)
O=C(Nc1ccn(C2CC(O)C(COC(c3ccccc3)(c3ccccc3)c3ccccc3)O2)c(=O)n1)c1ccccc1 (configuration not stated)	12.7 µM (inactive)	2.58 µM (inactive)	11 µM (inactive)	3.05 µM (inactive)	2.79 µM (inactive)	–	2.43 µM (inactive)	3.77 µM (inactive)	1.33 µM (inactive)	4.46 µM (inactive)	2.03 µM (inactive)	3.5 µM (inactive)	1.96 µM (inactive)	2.46 µM (inactive)	2.61 µM (inactive)
O=c1cnnc2sc(=S)[nH]n12	15.9 µM (inactive)	12.4 µM (inactive)	–	–	2.07 µM (inactive)	4.13 µM (inactive)	26.7 µM (inactive)	27.4 µM (inactive)	–	–	26.7 µM (inactive)	22.1 µM (inactive)	36.2 µM (inactive)	30.1 µM (inactive)	31 µM (inactive)
COc1ccc(/C=C2/SC(c3ccccc3)N(NC(=O)CCCCCCCCC(=O)NN3C(=O)/C(=C\c4ccc(OC)c(OC)c4)SC3c3ccccc3)C2=O)cc1OC (configuration not stated)	39.4 µM (inactive)	54.8 µM (inactive)	> 100 µM (inactive)	74.6 µM (inactive)	–	–	76 µM (inactive)	86.1 µM (inactive)	38.4 µM (inactive)	35.6 µM (inactive)	71 µM (inactive)	57.3 µM (inactive)	35.2 µM (inactive)	60.3 µM (inactive)	–
COC(=O)[C@]1(C)CCCn2c(=O)n(-c3ccccc3)c(=O)n21	> 100 µM (inactive)	> 100 µM (inactive)	68.1 µM (inactive)	> 100 µM (inactive)	> 100 µM (inactive)	> 100 µM (inactive)	> 100 µM (inactive)	> 100 µM (inactive)	> 100 µM (inactive)	> 100 µM (inactive)	–	> 100 µM (inactive)	–	> 100 µM (inactive)	–
COC(=O)c1cc2c3c(cc(N(C)C)c2[nH]1)N(C(=O)c1cc2cc(OC)c(OC)c(OC)c2[nH]1)CC3CCl (configuration not stated)	0.00476 µM (active)	< 0.0025 µM (active)	0.00362 µM (active)	0.00419 µM (active)	0.00403 µM (active)	–	0.00366 µM (active)	0.00775 µM (active)	0.00381 µM (active)	< 0.0025 µM (active)	0.00252 µM (active)	< 0.0025 µM (active)	0.00427 µM (active)	0.00392 µM (active)	0.00463 µM (active)
O=C1O/C(=C\c2ccc(O)cc2)C(c2ccc(O)c(Cl)c2)=C1Br	13.9 µM (inactive)	15.9 µM (inactive)	–	21.8 µM (inactive)	5.94 µM (inactive)	42 µM (inactive)	6.47 µM (inactive)	15.7 µM (inactive)	16.1 µM (inactive)	17.7 µM (inactive)	12.8 µM (inactive)	18 µM (inactive)	8.57 µM (inactive)	11.1 µM (inactive)	15.3 µM (inactive)
Cc1ccc2nc(NC(=O)/C(Cc3nc4ccc(Cl)cc4nc3O)=N\NC(C)(C)C)sc2c1	> 100 µM (inactive)	> 100 µM (inactive)	9.59 µM (inactive)	> 100 µM (inactive)	> 100 µM (inactive)	> 100 µM (inactive)	> 100 µM (inactive)	> 100 µM (inactive)	> 100 µM (inactive)	> 100 µM (inactive)	> 100 µM (inactive)	> 100 µM (inactive)	> 100 µM (inactive)	> 100 µM (inactive)	–
COc1ccc(-c2nc(-c3cnccn3)n(Cc3ccccc3)n2)cc1	> 100 µM (inactive)	> 100 µM (inactive)	–	> 100 µM (inactive)	> 100 µM (inactive)	> 100 µM (inactive)	> 100 µM (inactive)	> 100 µM (inactive)	> 100 µM (inactive)	> 100 µM (inactive)	> 100 µM (inactive)	> 100 µM (inactive)	> 100 µM (inactive)	> 100 µM (inactive)	–
S=C(N/N=C/c1ccccn1)N1CCCCCC1	< 0.01 µM (active)	< 0.01 µM (active)	–	< 0.01 µM (active)	< 0.01 µM (active)	< 0.01 µM (active)	< 0.01 µM (active)	0.416 µM (active)	< 0.01 µM (active)	< 0.01 µM (active)	< 0.01 µM (active)	< 0.01 µM (active)	0.0773 µM (active)	< 0.01 µM (active)	< 0.0392 µM (active)
COc1ccc(CC2(O)C3CC4CCC2C4C3)cc1 (configuration not stated)	38.5 µM (inactive)	> 100 µM (inactive)	88.1 µM (inactive)	–	42 µM (inactive)	> 100 µM (inactive)	39.2 µM (inactive)	> 100 µM (inactive)	64.4 µM (inactive)	–	68.5 µM (inactive)	> 100 µM (inactive)	–	44.7 µM (inactive)	> 100 µM (inactive)
C=C1CC[C@](C)(O)[C@@]2(C)CC[C@H]3C(=C(C)C)C(=O)C[C@]3(C)C[C@H]12	> 50 µM (inactive)	21.6 µM (inactive)	> 50 µM (inactive)	> 50 µM (inactive)	10.9 µM (inactive)	10.4 µM (inactive)	21.1 µM (inactive)	> 50 µM (inactive)	> 50 µM (inactive)	26.5 µM (inactive)	–	> 50 µM (inactive)	–	27.7 µM (inactive)	–
CC1CCC2C(C(=O)O[C@H]3C4CCO[C@@H](OC5OC(CO)C(O)C(O)C5O)C4[C@@]4(CO)O[C@@H]34)=CO[C@@H](OC3OC(CO)C(O)C(O)C3O)C12 (some centres not stated)	> 10 µM (inactive)	> 10 µM (inactive)	> 10 µM (inactive)	> 10 µM (inactive)	> 10 µM (inactive)	> 10 µM (inactive)	> 10 µM (inactive)	> 10 µM (inactive)	> 10 µM (inactive)	> 10 µM (inactive)	> 10 µM (inactive)	> 10 µM (inactive)	> 10 µM (inactive)	–	> 10 µM (inactive)
COC(=O)C1OC2(CCCC3CC32)O[C@H]1C(=O)OC (some centres not stated)	> 100 µM (inactive)	> 100 µM (inactive)	> 100 µM (inactive)	> 100 µM (inactive)	> 100 µM (inactive)	> 100 µM (inactive)	> 100 µM (inactive)	> 100 µM (inactive)	> 100 µM (inactive)	–	90.4 µM (inactive)	> 100 µM (inactive)	> 100 µM (inactive)	> 100 µM (inactive)	> 100 µM (inactive)
CC(NC(=O)C(NC(=O)OC(C)(C)C)C(C)C)C(=O)N1CCCC1C(=O)NCC(=O)NC(C(=O)NCC(=O)O)C(C)C (configuration not stated) (Boc-VAPGVG-OH; configuration not given here)	> 100 µM (inactive)	> 100 µM (inactive)	–	92.3 µM (inactive)	> 100 µM (inactive)	> 100 µM (inactive)	> 100 µM (inactive)	> 100 µM (inactive)	> 100 µM (inactive)	> 100 µM (inactive)	65.5 µM (inactive)	> 100 µM (inactive)	> 100 µM (inactive)	> 100 µM (inactive)	> 100 µM (inactive)
COc1cc(/C=C/C(=O)CC(=O)/C=C/c2ccc(O)c(OC)c2)ccc1O [CURCUMIN]	11.5 µM (inactive)	4.19 µM (inactive)	18.8 µM (inactive)	17.8 µM (inactive)	3.03 µM (inactive)	2.72 µM (inactive)	8.79 µM (inactive)	9.42 µM (inactive)	5.6 µM (inactive)	8.36 µM (inactive)	8.07 µM (inactive)	4.72 µM (inactive)	–	7.26 µM (inactive)	14 µM (inactive)
